Test results published in patent publication US9266871B2, “Trifluoromethyl-substituted fused pyrimidines and their use” (BAYER PHARMA AKTIENGESELLSCHAFT, priority 2013, dated 2016).

Tested on: spontaneously hypertensive rats (SHR Okamoto)
Assay: Radiotelemetric measurement of blood pressure on conscious spontaneously hypertensive rats
Type: in vivo, rat
Excerpt: B-3. Radiotelemetric Measurement of Blood Pressure on Conscious Spontaneously Hypertensive Rats
A commercially available telemetry system from DATA SCIENCES INTERNATIONAL DSI, USA, is employed for the blood pressure measurement on conscious rats described below.
The system consists of 3 main components: • implantable transmitters (Physiotel® telemetry transmitter) • receivers (Physiotel® receiver) which are linked via a multiplexer (DSI Data Exchange Matrix) to a • data acquisition computer.
The telemetry system makes it possible to continuously record blood pressure, heart rate and body motion of conscious animals in their usual habitat.
The investigations are carried out on adult female spontaneously hypertensive rats (SHR Okamoto) with a body weight of >200 g. SHR/NCrl from the Okamoto Kyoto School of Medicine, 1963 were a cross of male Wistar Kyoto rats with highly elevated blood pressure and female rats having a slightly elevated blood pressure and at F13 handed over to the U.S. National Institutes of Health.
Unless indicated otherwise, the substances to be investigated are administered orally by gavage in each case to a group of animals (n=6). The test substances are dissolved in suitable solvent mixtures, or suspended in 0.5% strength Tylose, appropriate for an administration volume of 2 ml/kg of body weight.
In the standard procedure, the following are measured for 10-second periods in each case: • systolic blood pressure (SBP) • diastolic blood pressure (DBP) • mean arterial pressure (MAP) • heart rate (HR) • activity (ACT).
The acquisition of measurements is repeated under computer control at 5-minute intervals. The source data obtained as absolute value are corrected in the diagram with the currently measured barometric pressure (Ambient Pressure Reference Monitor; APR-1) and stored as individual data. Further technical details are given in the extensive documentation from the manufacturing company (DSI).
Unless indicated otherwise, the test substances are administered at 9.00 am on the day of the experiment. Following the administration, the parameters described above are measured over 24 hours.
After the end of the experiment, the acquired individual data are sorted using the analysis software (DATAQUEST™ A.R.T.™ ANALYSIS). The blank value is assumed to be the time 2 hours before administration, and so the selected data set encompasses the period from 7.00 am on the day of the experiment to 9.00 am the following day.
The data are smoothed over a presettable time by determination of the average (30-minute average) and transferred as a text file to a storage medium. The measured values presorted and compressed in this way are transferred into Excel templates and tabulated. For each day of the experiment, the data obtained are stored in a dedicated file bearing the number of the experiment. Results and test protocols are filed sorted by numbers.

SMILES: C[C@@]1(C(F)(F)F)C(=O)Nc2nc(-c3nn(Cc4ncccc4F)c4ncc(F)cc34)nc(NCCC(F)(F)F)c21 (single isomer, unassigned) [Example 1-1]
- mean blood pressure (0.03 mg/kg, 0 hours after substance administration): 148.8 mmHg
- mean blood pressure (0.03 mg/kg, 1 hours after substance administration): 133.5 mmHg
- mean blood pressure (0.03 mg/kg, 2 hours after substance administration): 127.3 mmHg
- mean blood pressure (0.03 mg/kg, 3 hours after substance administration): 128.8 mmHg
- mean blood pressure (0.03 mg/kg, 4 hours after substance administration): 132.3 mmHg
- mean blood pressure (0.03 mg/kg, 5 hours after substance administration): 126.0 mmHg
- mean blood pressure (0.03 mg/kg, 6 hours after substance administration): 124.5 mmHg
- mean blood pressure (0.03 mg/kg, 7 hours after substance administration): 138.8 mmHg
- mean blood pressure (0.03 mg/kg, 8 hours after substance administration): 143.8 mmHg
- mean blood pressure (0.03 mg/kg, 9 hours after substance administration): 136.5 mmHg
- mean blood pressure (0.03 mg/kg, 10 hours after substance administration): 143.8 mmHg
- mean blood pressure (0.03 mg/kg, 11 hours after substance administration): 141.7 mmHg
- mean blood pressure (0.03 mg/kg, 12 hours after substance administration): 141.7 mmHg
- mean blood pressure (0.03 mg/kg, 13 hours after substance administration): 150.5 mmHg
- mean blood pressure (0.03 mg/kg, 14 hours after substance administration): 150.8 mmHg
- mean blood pressure (0.03 mg/kg, 15 hours after substance administration): 153.8 mmHg
- mean blood pressure (0.03 mg/kg, 16 hours after substance administration): 145.7 mmHg
- mean blood pressure (0.03 mg/kg, 17 hours after substance administration): 155.3 mmHg
- mean blood pressure (0.03 mg/kg, 18 hours after substance administration): 151.2 mmHg
- mean blood pressure (0.03 mg/kg, 19 hours after substance administration): 146.3 mmHg
- mean blood pressure (0.03 mg/kg, 20 hours after substance administration): 140.2 mmHg
- mean blood pressure (0.03 mg/kg, 21 hours after substance administration): 142.2 mmHg
- mean blood pressure (0.03 mg/kg, 22 hours after substance administration): 142.8 mmHg
- mean blood pressure (0.03 mg/kg, 23 hours after substance administration): 143.0 mmHg
- mean blood pressure (0.03 mg/kg, 24 hours after substance administration): 143.2 mmHg
- mean blood pressure (0.3 mg/kg p.o., 0 hours after substance administration): 138.7 mmHg
- mean blood pressure (0.3 mg/kg p.o., 1 hours after substance administration): 116.3 mmHg
- mean blood pressure (0.3 mg/kg p.o., 2 hours after substance administration): 106.8 mmHg
- mean blood pressure (0.3 mg/kg p.o., 3 hours after substance administration): 107.2 mmHg
- mean blood pressure (0.3 mg/kg p.o., 4 hours after substance administration): 105.5 mmHg
- mean blood pressure (0.3 mg/kg p.o., 5 hours after substance administration): 106.2 mmHg
- mean blood pressure (0.3 mg/kg p.o., 6 hours after substance administration): 106.8 mmHg
- mean blood pressure (0.3 mg/kg p.o., 7 hours after substance administration): 101.7 mmHg
- mean blood pressure (0.3 mg/kg p.o., 8 hours after substance administration): 111.3 mmHg
- mean blood pressure (0.3 mg/kg p.o., 9 hours after substance administration): 109.0 mmHg
- mean blood pressure (0.3 mg/kg p.o., 10 hours after substance administration): 113.3 mmHg
- mean blood pressure (0.3 mg/kg p.o., 11 hours after substance administration): 114.8 mmHg
- mean blood pressure (0.3 mg/kg p.o., 12 hours after substance administration): 112.0 mmHg
- mean blood pressure (0.3 mg/kg p.o., 13 hours after substance administration): 117.2 mmHg
- mean blood pressure (0.3 mg/kg p.o., 14 hours after substance administration): 115.7 mmHg
- mean blood pressure (0.3 mg/kg p.o., 15 hours after substance administration): 117.8 mmHg
- mean blood pressure (0.3 mg/kg p.o., 16 hours after substance administration): 111.5 mmHg
- mean blood pressure (0.3 mg/kg p.o., 17 hours after substance administration): 121.7 mmHg
- mean blood pressure (0.3 mg/kg p.o., 18 hours after substance administration): 132.3 mmHg
- mean blood pressure (0.3 mg/kg p.o., 19 hours after substance administration): 117.0 mmHg
- mean blood pressure (0.3 mg/kg p.o., 20 hours after substance administration): 110.7 mmHg
- mean blood pressure (0.3 mg/kg p.o., 21 hours after substance administration): 124.0 mmHg
- mean blood pressure (0.3 mg/kg p.o., 22 hours after substance administration): 125.5 mmHg
- mean blood pressure (0.3 mg/kg p.o., 23 hours after substance administration): 139.0 mmHg
- mean blood pressure (0.3 mg/kg p.o., 24 hours after substance administration): 150.5 mmHg
